Data on three compounds can be found in US6392025B1, “Human NHE3 protein and non-human cells expressing same” (Tranzmembrane, LLC, priority 1995, dated 2002).

Test [1] has as its target T1, human NHE3 (Homo sapiens, UniProt P48764).
T1 construct: expressed in transfected cells; host or cells: PS120 (Na+/H+ exchanger deficient derivative of Chinese hamster lung fibroblast line CCL39), plasmid pEH3 (pECE vector)
T1 sequence (P48764 26-834): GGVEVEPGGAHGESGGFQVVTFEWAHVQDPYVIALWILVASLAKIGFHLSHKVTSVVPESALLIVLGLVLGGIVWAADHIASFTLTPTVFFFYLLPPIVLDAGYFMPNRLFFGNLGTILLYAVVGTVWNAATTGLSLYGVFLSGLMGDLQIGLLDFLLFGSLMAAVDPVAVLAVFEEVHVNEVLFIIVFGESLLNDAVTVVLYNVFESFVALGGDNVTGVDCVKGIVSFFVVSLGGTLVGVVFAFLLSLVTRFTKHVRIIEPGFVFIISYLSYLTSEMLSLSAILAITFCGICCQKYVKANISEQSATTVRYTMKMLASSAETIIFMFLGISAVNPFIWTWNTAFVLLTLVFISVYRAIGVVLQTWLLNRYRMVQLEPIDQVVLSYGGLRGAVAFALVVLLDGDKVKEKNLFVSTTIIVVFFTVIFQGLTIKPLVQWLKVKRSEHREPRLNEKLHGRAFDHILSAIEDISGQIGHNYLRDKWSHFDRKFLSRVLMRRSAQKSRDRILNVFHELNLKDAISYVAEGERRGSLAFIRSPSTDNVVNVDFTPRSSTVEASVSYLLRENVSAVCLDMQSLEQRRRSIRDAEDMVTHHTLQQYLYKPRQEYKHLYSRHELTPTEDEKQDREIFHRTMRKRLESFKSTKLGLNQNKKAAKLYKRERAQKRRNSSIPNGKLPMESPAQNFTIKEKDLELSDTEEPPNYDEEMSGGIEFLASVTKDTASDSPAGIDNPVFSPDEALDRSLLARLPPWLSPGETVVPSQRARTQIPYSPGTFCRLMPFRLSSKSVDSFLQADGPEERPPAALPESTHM
The test is described as follows: Na+/H+ exchange activity by BCECF fluorescence (pHi) in HNHE3/PS120 cells. It counts as cell-based. As for the experimental part:
HNHE3/PS120 cells were grown to 70-80% confluency on glass coverslips, serum starved overnight to arrest growth, washed with Na^+ medium (containing in mM: 130 NaCl, 5 KCl, 2 CaCl2, 1 MgSO4, 1 NaPO4, 25 glucose, 20 HEPES, pH 7.4) and loaded with the acetoxymethyl ester of 2′,7′-bis(2-carboxyethyl)-5-(and-6)carboxyfluorescein (BCECF) as previously discussed (31). Cells were washed with TMA medium (containing in mM: 130 tetramethylammonium-C1, 5 KCl, 2 CaCl2 1 MgSO4, 1 TMA-P04, 25 glucose, 20 HEPES, pH 7.4), mounted in a cuvette, and perfused at 37° C. Cells were acidified by perfusing with 30 mM NH4Cl prepulse followed by removal of NH4Cl with TMA medium. The cuvette was then perfused with Na^+ medium. […] Na^+/H^+ exchange was determined by multiplying the initial rate of Na^+ dependent alkalinization by intracellular buffering capacity, as described.
HNHE3/PS120 cells loaded with BCECF were acidified by NH4Cl prepulse.
Serum starved HNHE3/PS120 cells were acidified by a NH4Cl prepulse and allowed to recover in 130 mM Na^+ medium until steady-state pHi was obtained.

The target of test [2] is T1, human NHE3. The test is described as follows: 22Na+ uptake in acid loaded HNHE3/PS120 cells. It counts as cell-based. The settings on record: 22Na+ 1 mM. As for the experimental part: Stably transfected HNHE3/PS 120 cells were grown to near confluency in 24-well plates. The cells were serum-starved for 24 hours to arrest growth. ^22Na^+ uptake (1 mM) was measured during the linear phase of uptake in the presence of 1 mM ouabain and various concentrations of potential inhibitors amiloride or ethylisopropylamiloride (EIPA) following acidification with NH4Cl prepulse, as detailed previously (30).
Human brush border epithelial Na^+/H^+ exchange has been characterized as being much less sensitive to inhibition by amiloride and its 5-amino-substituted analogues than basolateral and nonepithelial membrane Na^+/H^+ exchangers (10,24,36). Therefore we determined the quantitative sensitivity of HNHE3/PS120 cells to inhibition by amiloride and EIPA by ^22Na^+ uptake studies. The concentration dependence for amiloride and EIPA inhibition of the initial rate of ^22Na^+ uptake (1 mM) into acid loaded HNHE3/PS120 cells was determined.
Three independent experiments were performed. […] FIG. 6 provides curves are from a representative experiment. Each point represents the mean percent of control ^22Na^+ uptake of duplicate experiments for each concentration of inhibitor. The curves are nonlinear least squares fits of the data assuming a single binding site for the inhibition (GraphPAD Software, Inc., San Diego, Calif.).

The target in another test is Rat NHE3 (Rattus norvegicus, UniProt P26433). Particulars: read-out: Inhibition constants (IC50); cited from earlier work.
Sequence of Rat NHE3 (P26433 29-831): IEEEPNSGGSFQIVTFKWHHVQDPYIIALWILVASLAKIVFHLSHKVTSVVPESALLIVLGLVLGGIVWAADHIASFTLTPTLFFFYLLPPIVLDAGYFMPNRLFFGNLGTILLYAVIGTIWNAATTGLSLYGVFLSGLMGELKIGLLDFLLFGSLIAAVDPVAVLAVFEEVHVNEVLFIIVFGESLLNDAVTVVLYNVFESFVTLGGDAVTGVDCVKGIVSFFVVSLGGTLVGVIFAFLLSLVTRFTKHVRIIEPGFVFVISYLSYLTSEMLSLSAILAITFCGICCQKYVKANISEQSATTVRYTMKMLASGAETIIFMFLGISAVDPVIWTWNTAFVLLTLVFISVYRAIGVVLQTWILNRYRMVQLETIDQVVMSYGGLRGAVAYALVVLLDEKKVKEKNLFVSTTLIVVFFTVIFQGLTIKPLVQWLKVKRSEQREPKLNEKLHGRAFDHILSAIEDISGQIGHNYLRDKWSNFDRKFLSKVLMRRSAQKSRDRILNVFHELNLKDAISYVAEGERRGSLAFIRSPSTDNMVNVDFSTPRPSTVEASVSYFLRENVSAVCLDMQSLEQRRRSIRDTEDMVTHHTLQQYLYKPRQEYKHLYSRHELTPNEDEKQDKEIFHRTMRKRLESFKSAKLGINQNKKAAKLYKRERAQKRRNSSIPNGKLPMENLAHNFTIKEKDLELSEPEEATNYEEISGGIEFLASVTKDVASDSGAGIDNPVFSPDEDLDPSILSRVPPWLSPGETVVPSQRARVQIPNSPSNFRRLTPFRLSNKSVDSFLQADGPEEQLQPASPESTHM
The next test has as its target Rabbit NHE3 (Oryctolagus cuniculus, UniProt P26432). Particulars: read-out: Inhibition constants (IC50); cited from earlier work.
[3] abbreviates: mean of three independent experiments, read-out: Inhibition constants (IC50) of 22Na+ uptake, mean.
The mark [4] stands for this setting: single representative experiment, nonlinear least squares fit, read-out: IC50 of the representative curves (FIG. 6).

Entries after “also recorded” stand apart in the source; their conditions may differ. Like-named read-outs stand apart in the source and are kept apart here.

Sequence of Rabbit NHE3 (P26432 30-832): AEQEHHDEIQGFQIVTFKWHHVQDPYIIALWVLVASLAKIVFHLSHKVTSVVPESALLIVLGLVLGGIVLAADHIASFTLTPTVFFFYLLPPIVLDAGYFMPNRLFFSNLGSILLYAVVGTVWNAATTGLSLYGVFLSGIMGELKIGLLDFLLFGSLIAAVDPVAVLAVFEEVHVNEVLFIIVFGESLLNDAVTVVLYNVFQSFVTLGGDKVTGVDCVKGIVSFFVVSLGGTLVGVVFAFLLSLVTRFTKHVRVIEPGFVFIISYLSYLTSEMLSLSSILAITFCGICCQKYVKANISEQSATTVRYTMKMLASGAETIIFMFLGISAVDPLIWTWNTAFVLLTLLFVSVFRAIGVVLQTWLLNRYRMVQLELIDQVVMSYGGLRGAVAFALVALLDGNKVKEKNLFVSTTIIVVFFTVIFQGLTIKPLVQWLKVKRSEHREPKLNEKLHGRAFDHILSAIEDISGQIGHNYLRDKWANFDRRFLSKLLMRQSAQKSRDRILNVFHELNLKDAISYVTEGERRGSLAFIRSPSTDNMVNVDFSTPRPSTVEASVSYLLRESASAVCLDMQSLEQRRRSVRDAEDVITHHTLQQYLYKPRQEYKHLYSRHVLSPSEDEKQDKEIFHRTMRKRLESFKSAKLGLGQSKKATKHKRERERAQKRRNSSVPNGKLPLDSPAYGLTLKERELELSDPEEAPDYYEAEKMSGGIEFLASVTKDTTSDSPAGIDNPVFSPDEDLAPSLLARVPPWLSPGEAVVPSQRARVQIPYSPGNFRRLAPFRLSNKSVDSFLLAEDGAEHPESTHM

Regarding `CCCCCCCCCCCCCC(=O)O[C@@H]1[C@@H](C)[C@@]2(O)[C@@H](C=C(CO)C[C@]3(O)C(=O)C(C)=C[C@@H]23)[C@@H]2C(C)(C)[C@]12OC(C)=O` [PMA, phorbol 12-myristate 13-acetate], the “ΔpHi at steady state after addition” value at human NHE3 [1] (FGF 10 ng/ml (n=4) or PMA 1.0 μM (n=5), 130 mM Na+ medium, controls −0.006±0.012) is reported as −0.052±0.006. On human NHE3 [1] (FGF 10 ng/ml or PMA 1.0 μM added at steady-state pHi), the “time to reach new steady state pHi (average)” value is on record as “less than 2 min”. Further, the “effect on human NHE3 Na+/H+ exchange activity (in words)” value at human NHE3 [1] (FGF 10 ng/ml, 8-bromo-cAMP 0.5 mM, PMA 1.0 μM, at steady-state pHi) is “inhibition of the transfected Na^+/H^+ exchanger; also recorded: inhibited”.
Broadly, the IC50 is the point on the concentration scale where inhibition reaches its midpoint. Consider `CCN(c1nc(N)c(C(=O)NC(=N)N)nc1Cl)C(C)C` [Ethylisopropylamiloride, ethylisopropylamiloride], for which the IC50 on human NHE3 [2] (setting [3]) was 6.6 µM; at human NHE3 [2] (setting [4]) it was 8.8 µM; on Rat NHE3 it was 2.4 µM; at Rabbit NHE3, 8 µM.
Turning to `N=C(N)NC(=O)c1nc(Cl)c(N)nc1N` [Amiloride, amiloride], the concentration for half-maximal inhibition (IC50) on human NHE3 [2] (setting [3]) was 49 µM; on human NHE3 [2] (setting [4]), 59 µM; on Rat NHE3 it was 100 µM; at Rabbit NHE3, 39 µM.
